According to article PMC9653166 (Journal of medicinal chemistry, 2022):

Columns and labels:
Sirt1 = biological target: T1, Sirt1 (Homo sapiens, UniProt Q96EB6); assay: Coupled enzymatic deacetylation assay, Sirt1 with p53-acK381 peptide; format: biochemical; settings: 10 and 100 μM compound
T1 sequence (Q96EB6 1-747): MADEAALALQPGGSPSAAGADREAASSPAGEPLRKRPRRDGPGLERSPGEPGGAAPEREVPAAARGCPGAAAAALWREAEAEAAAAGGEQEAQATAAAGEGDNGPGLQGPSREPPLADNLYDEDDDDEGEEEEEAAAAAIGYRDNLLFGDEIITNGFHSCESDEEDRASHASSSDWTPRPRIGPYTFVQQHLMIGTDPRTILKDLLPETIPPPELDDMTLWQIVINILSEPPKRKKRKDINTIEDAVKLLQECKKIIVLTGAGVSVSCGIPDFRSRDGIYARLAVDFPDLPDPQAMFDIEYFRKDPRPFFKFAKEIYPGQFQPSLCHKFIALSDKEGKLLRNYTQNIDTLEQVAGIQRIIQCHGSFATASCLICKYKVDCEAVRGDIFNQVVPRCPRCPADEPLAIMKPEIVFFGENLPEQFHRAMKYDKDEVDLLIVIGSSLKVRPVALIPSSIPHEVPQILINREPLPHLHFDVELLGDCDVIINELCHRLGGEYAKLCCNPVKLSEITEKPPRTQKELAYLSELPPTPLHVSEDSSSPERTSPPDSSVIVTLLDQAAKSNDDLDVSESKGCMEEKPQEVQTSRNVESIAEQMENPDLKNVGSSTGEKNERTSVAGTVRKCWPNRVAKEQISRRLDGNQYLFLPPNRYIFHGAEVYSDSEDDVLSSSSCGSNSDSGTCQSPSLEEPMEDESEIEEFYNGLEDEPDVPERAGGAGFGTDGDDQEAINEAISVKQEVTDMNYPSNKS

Sirt3 [1] = biological target: T2, Sirt3 (Homo sapiens, UniProt Q9NTG7); assay: Sirt3-dependent deacetylation of a panel of eleven acetylated peptides; format: biochemical
T2 sequence (Q9NTG7 114-380): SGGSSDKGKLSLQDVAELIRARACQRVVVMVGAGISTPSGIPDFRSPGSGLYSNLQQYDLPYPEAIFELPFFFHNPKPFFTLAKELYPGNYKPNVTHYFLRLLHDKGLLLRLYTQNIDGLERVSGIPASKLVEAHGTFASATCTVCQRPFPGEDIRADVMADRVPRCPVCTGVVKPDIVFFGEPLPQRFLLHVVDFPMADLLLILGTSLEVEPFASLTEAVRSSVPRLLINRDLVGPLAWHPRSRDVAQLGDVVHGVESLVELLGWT

Sirt5 [2] = biological target: T3, Sirt5 (Homo sapiens, UniProt Q9NXA8); assay: Microscale thermophoresis binding to Sirt5
T3 sequence (Q9NXA8 34-302): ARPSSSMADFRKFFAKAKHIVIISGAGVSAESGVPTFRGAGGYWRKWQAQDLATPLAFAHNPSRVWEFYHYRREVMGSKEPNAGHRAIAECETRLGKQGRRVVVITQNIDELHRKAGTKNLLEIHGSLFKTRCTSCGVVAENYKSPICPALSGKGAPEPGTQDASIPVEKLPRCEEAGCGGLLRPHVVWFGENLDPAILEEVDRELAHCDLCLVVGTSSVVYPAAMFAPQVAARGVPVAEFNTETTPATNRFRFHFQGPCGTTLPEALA

Sirt3 [3] = biological target: T4, Sirt3 (Homo sapiens, UniProt Q9NTG7); assay: Cellular SIRT3 deacetylase activity assay; format: cell-based; settings: MDA-MB-231 cells, 50 and 100 μM, 3 h
T4 sequence (Q9NTG7 1-399): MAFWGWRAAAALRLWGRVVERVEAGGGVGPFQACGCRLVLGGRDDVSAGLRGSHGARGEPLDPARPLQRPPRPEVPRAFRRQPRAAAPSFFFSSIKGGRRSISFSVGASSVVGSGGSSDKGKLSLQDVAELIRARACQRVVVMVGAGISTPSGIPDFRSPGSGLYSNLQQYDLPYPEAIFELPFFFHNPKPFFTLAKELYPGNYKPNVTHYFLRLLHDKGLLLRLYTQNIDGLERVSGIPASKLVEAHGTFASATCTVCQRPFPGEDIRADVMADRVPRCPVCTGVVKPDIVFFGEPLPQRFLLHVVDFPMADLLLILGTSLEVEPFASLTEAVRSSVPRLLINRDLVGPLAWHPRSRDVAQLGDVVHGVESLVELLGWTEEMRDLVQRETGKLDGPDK

GDH acetylation = assay: GDH immunoprecipitation and Lys acetylation Western blot, MDA-MB-231 cells; format: cell-based, human; settings: 50 μM
Sirt6 = Sirt6 (Homo sapiens, UniProt Q8N6T7); assay: Sirt6 activity test; format: biochemical; settings: 100 μM compound
Chain of Sirt6 (Q8N6T7 whole entry): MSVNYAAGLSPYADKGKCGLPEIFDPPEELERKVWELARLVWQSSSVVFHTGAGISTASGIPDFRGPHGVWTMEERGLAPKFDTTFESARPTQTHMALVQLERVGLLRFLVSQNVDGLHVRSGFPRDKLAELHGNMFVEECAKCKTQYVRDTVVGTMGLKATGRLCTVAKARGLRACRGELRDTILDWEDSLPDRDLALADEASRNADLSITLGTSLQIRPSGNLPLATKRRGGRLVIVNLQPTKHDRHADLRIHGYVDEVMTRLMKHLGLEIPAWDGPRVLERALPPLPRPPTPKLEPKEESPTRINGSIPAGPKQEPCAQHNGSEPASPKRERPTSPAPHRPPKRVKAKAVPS

Sirt2 = biological target: T5, Sirt2 (Homo sapiens, UniProt Q8IXJ6); assay: Coupled enzymatic deacetylation assay, Sirt2 with α-tubulin-acK25 peptide; format: biochemical; settings: coupled assay, 10 and 100 μM compound
T5 sequence (Q8IXJ6 43-356): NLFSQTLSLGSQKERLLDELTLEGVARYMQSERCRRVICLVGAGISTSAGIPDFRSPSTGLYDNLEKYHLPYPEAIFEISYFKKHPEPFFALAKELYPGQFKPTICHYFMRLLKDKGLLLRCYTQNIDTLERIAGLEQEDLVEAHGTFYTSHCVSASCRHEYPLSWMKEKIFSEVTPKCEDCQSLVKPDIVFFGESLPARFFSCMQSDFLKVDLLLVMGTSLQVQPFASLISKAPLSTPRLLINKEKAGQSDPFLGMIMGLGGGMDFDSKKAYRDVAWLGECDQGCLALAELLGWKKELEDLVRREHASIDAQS

Sirt5 [4] = biological target: T3, Sirt5; assay: Coupled enzymatic desuccinylation assay, Sirt5 with CPS1-succK537 peptide; format: biochemical
Sirt4 = biological target: T6, Sirt4 (Homo sapiens, UniProt Q9Y6E7); assay: Sirt4 activity test; format: biochemical; settings: 100 μM compound
T6 sequence (Q9Y6E7 29-314): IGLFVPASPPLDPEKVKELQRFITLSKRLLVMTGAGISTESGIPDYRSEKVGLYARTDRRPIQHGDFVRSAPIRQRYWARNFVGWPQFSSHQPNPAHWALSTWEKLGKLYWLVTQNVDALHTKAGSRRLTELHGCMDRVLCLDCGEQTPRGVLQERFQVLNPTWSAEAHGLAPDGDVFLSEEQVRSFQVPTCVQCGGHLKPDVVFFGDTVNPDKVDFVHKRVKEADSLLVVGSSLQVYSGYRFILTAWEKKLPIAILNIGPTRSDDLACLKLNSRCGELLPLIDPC

Sirt3 [5] = biological target: T2, Sirt3; assay: MS-based deacetylation assay, Sirt3 with ACS2 peptide; format: biochemical; settings: 100 μM compound
Sirt3 [6] = biological target: T2, Sirt3; assay: Coupled enzymatic deacetylation assay, Sirt3 with ACS2-acK642 peptide; format: biochemical
Sirt3 [7] = biological target: T2, Sirt3; assay: Microscale thermophoresis binding to Sirt3
Sirt5 [8] = biological target: T7, Sirt5 (Homo sapiens, UniProt Q9NXA8); assay: PDC deacylation assay: PDHA1 desuccinylation by recombinant Sirt5; format: biochemical; settings: 100 μM compound, PDHA1 from porcine heart tissue
T7 sequence (Q9NXA8 37-310): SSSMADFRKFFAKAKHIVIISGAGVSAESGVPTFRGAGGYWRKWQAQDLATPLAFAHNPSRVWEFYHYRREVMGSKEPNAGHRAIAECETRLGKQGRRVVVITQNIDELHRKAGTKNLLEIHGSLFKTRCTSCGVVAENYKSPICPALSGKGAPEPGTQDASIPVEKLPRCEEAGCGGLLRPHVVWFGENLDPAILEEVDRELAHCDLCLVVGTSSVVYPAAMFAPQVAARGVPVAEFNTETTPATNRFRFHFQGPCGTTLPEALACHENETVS

Sirt5 [9] = biological target: T3, Sirt5; assay: MS-based desuccinylation assay, Sirt5 with CPS1-succK537; format: biochemical; settings: 100 μM compound
Sirt5 [10] = biological target: T3, Sirt5; assay: NAD+ titration kinetics of Sirt5; format: biochemical; settings: in presence of 200 μM compound (without compound 1.6 ± 0.1)
GDH = GDH activity assay in MDA-MB-231 cell lysates; format: cell-based, human; settings: wild-type MDA-MB-231 cells, 50 μM, 4 or 24 h
MDA-MB-231 cells = assay: Ammonia level assay, MDA-MB-231 cells; format: cell-based, human; settings: 50 μM, 4 and 24 h
GOT1 acetylation = GOT1 acetylation Western blot in pancreatic cancer cell lines; format: cell-based
glutaminase (GLS) = assay: GLS activity assay in MDA-MB-231 cell lysates; format: cell-based, human; settings: MDA-MB-231 cells, 50 μM, 4 and 24 h

SMILES: CCOC(=O)C1=CN(C(=O)c2cc(OC)c(OC)c(OC)c2)C=C(C(=O)OCC)C1c1ccccc1 [Compound 31, Diethyl 4-Phenyl-1-(3,4,5-trimethoxybenzoyl)-1,4-dihydropyridine-3,5-dicarboxylate]
- Effect on Sirt1 activity (in words) (Sirt1): no significant effects
- Stimulation of Sirt3-dependent deacetylation of all panel substrates (Sirt3 [1]; 10 μM compound): weakly
- Stimulation of Sirt3-dependent deacetylation of all panel substrates (Sirt3 [1]; 100 μM compound): significantly
- Kd (Sirt5 [2]): 83 ± 19 µM
- FdL deacetylation (Sirt3) activity in cell lysates (Sirt3 [3]): significant increase in FdL deacetylation activity
- GDH overall Lys acetylation (GDH acetylation): decreased acetylation levels
- Effect on Sirt6 (Sirt6): no significant effects
- Effect on Sirt2 activity (in words) (Sirt2): no significant effects
- Effect on Sirt5 activity (in words) (Sirt5 [4]; coupled assay, 10 and 100 μM compound): no significant effects
- Effect on Sirt4 (Sirt4): partial Sirt4 inhibition
- Sirt3 activation in MS-based assay (Sirt3 [5]): activated Sirt3-dependent deacetylation of the ACS2 peptide
- Sirt3 activity (Sirt3 [6]; 100 μM compound): more than 400%
- Kd (Sirt3 [7]): 32 ± 7 µM

SMILES: CCOC(=O)C1=CN(C(=O)c2ccccc2)C=C(C(=O)OCC)C1c1ccsc1 [Compound 30, Diethyl 1-Benzoyl-4-(thiophen-3-yl)-1,4-dihydropyridine-3,5-dicarboxylate]
- Effect on Sirt1 activity (in words) (Sirt1): no significant effects
- Sirt5-dependent desuccinylation of PDHA1 (Sirt5 [8]): clearly enhanced
- Sirt5 activation in MS-based assay (Sirt5 [9]): confirmed the activation of Sirt5-dependent desuccinylation
- NAD+ kinetics vmax of Sirt5 (Sirt5 [10]): 2.3 ± 0.1 nmol/mg/min
- GDH activity in cell lysates (GDH): decreased GDH activity
- Ammonia accumulation (MDA-MB-231 cells): blocked ammonia accumulation
- Effect on Sirt6 (Sirt6): weak, partial inhibition
- Effect on Sirt2 activity (in words) (Sirt2): no significant effects
- EC50 (Sirt5 [4]): ~40 µM
- Sirt5 activation (CPS1-succK537 desuccinylation) (Sirt5 [4]; 100 μM compound): 3- to 3.5 fold
- Maximum activation of Sirt5 (Sirt5 [4]; titration, beyond 200 μM compound concentration): 5 fold
- GOT1 acetylation (GOT1 acetylation; S2–013 and Capan1 cell lines, 20 μM, 24 h): decrease GOT1 acetylation
- Effect on GOT1 acetylation (GOT1 acetylation; SIRT5 knockout KPC and KPCS cell lines): negligible
- Effect on Sirt4 (Sirt4): weak, partial inhibition
- Effect on Sirt3 activity (in words) (Sirt3 [6]; coupled assay, ACS2 peptide, 10 and 100 μM compound): no significant effects
- Kd (Sirt3 [7]): 138 ± 37 µM
- GLS activity in cell lysates (glutaminase (GLS)): decreased GLS activity
